How the values were obtained:
[1] = log P determination by HPLC on reverse phase column, pH 2.3; type: physicochemical; conditions: reverse phase HPLC column (C 18), reverse phase column (C 18), pH 2.3, 43° C.
Experimental: The determination of the log P values given in the above table and preparation examples is carried out in accordance with EEC directive 79/831 Annex V.A8 by HPLC (High Performance Liquid Chromatography) on a reverse phase column (C 18). Temperature: 43° C. The determination is carried out under acidic conditions at pH 2.3 with 0.1% aqueous phosphoric acid and acetonitrile as eluents; linear gradient of 10% acetonitrile to 95% acetonitrile. Calibration was is carried out with unbranched alkan-2-ones (with 3 to 16 carbon atoms) of known log P values (Determination of log P values by the retention times by linear interpolation between two sequential alkanones).

[2] = system: green peach aphid (Myzus persicae); assay: Myzus test (spray treatment); type: in vivo; conditions: for pest or weed control at 100 g/ha: Myzus persicae, in Brassica oleracea, 120 h, spray treatment, China cabbage slices, after 5 d, read-out: Death rate in % after 5d; for activity in Myzus test (spray treatment): statement in words
Experimental: [table] For the preparation of a suitable active compound formulation 1 part by weight of the active compound is mixed with the above amounts of solvent and emulsifier and the concentrate is diluted to the desired concentration with water containing emulsifier. China cabbage slices (Brassica pekinensis) that are infected with all stages of the green peach aphid (Myzus persicae) are sprayed with an active compound preparation at the desired concentration. After the desired time the activity in % is determined. Here 100% means that all aphids were killed; 0% means that no aphids were killed.

[3] = system: larvae of the mustard leaf beetle (Phaedon cochleariae); assay: Phaedon test (spray treatment); type: in vivo; conditions: for activity in Phaedon test (spray treatment): statement in words
Experimental: (§1) [table] For the preparation of a suitable active compound formulation 1 part by weight of the active compound is mixed with the above amounts of solvent and emulsifier and the concentrate is diluted to the desired concentration with water containing emulsifier. China cabbage slices (Brassica pekinensis) are sprayed with an active compound preparation of the desired composition and after drying infected with larvae of the mustard leaf beetle (Phaedon cochleariae). After the desired time the activity in % is determined. Here 100% means that all beetle larvae were killed; 0% means that no beetle larvae were killed.

[4] = system: caterpillars of the fall army worm (Spodoptera frugiperda); assay: Spodoptera frugiperda test (spray treatment); type: in vivo; conditions: for pest or weed control at 4 g/ha: Spodoptera frugiperda, 168 h, spray treatment, maize leaf sections, after 7 d, read-out: Death rate in % after 7d; for activity in Spodoptera frugiperda test (spray treatment): statement in words
Experimental: as §1, with “Maize leaf sections (Zea mays)” for “China cabbage slices (Brassica pekinensis)”, “concentration” for “composition”, “caterpillars” for “larvae”, “fall army worm (Spodoptera frugiperda).” for “mustard leaf beetle (Phaedon cochleariae).”, “caterpillars” for “beetle larvae”

[5] = system: caterpillars of the diamond back moth (Plutella xylostella); assay: Plutella test; type: in vivo
Experimental: [table] For the preparation of a suitable active compound formulation 1 part by weight of the active compound is mixed with the above amounts of solvent and emulsifier and the concentrate is diluted to the desired concentration with water containing emulsifier. Cabbage leaves (Brassica oleracea) are treated by dipping into the active compound preparation of the desired concentration and infected with caterpillars of the diamond back moth (Plutella xylostella) while the leaves were still wet. After the desired time the death rate is determined as %. Here 100% means that all caterpillars were killed; 0% means no caterpillars were killed.

[6] = system: caterpillars of the beet army worm (Spodoptera exigua); assay: Spodoptera exigua test (resistant strain); type: in vivo; conditions: for Death rate in % after 7d: resistant strain, cabbage leaves dipped; for activity in Spodoptera exigua test (resistant strain): statement in words
Experimental: [table] For the preparation of a suitable active compound formulation 1 part by weight of the active compound is mixed with the above amounts of solvent and emulsifier and the concentrate is diluted to the desired concentration with water containing emulsifier. Cabbage leaves (Brassica oleracea) are treated by dipping in the active compound preparation at the desired concentration and infected with caterpillars of the beet army worm (Spodoptera exigua) while the leaves are still moist. After the desired time the death rate in % is determined. Here 100% means that all caterpillars were killed; 0% means that no caterpillars were killed.

[7] = system: caterpillars of the cotton boll worm (Heliothis armigera); assay: Heliothis armigera test; type: in vivo
Experimental: [table] For the preparation of a suitable active compound formulation 1 part by weight of the active compound is mixed with the above amounts of solvent and emulsifier and the concentrate is diluted to the desired concentration with water containing emulsifier. Soy bean leaves (Glycine max.) are treated by dipping into the active compound preparation at the desired concentration and infected with the caterpillars of the cotton boll worm (Heliothis armigera), while the leaves are still wet. After the desired time the death rate in % is determined. Here 100% means that all caterpillars were killed; 0% means that no caterpillars were killed.

[8] = system: green peach aphid (Myzus persicae); assay: Myzus persicae test; hydroponic treatment; type: in vivo; conditions: for Death rate in % after 6d: 20 ppm in water, hydroponic treatment, pea plant; for activity in Myzus persicae test; hydroponic treatment: statement in words
Experimental: [table] For the preparation of a suitable active compound formulation 1 part by weight of the active compound is mixed with the above amounts of solvent and emulsifier and the concentrate is diluted to the desired concentration with water. The active compound preparation is mixed with water. The concentration given refers to the amount of active compound per unit volume of water (mg/l=ppm). The treated water is placed in a vessel with a pea plant (Pisum sativum) which is then infection with the green peach aphid (Myzus persicae) is carried out. After the desired time the death rate in % is determined. Here 100% means that all aphids were killed, 0% means that no aphids were killed.

[9] = system: two-spotted spider mite (Tetranychus urticae); assay: Tetranychus Test OP resistant; type: in vivo
Experimental: [table] For the preparation of a suitable active compound formulation 1 part by weight of the active compound is mixed with the above amounts of solvent and emulsifier and the concentrate is diluted to the desired concentration with water containing emulsifier. Bean leaf slices (Phaseolus vulgaris) that are infested by all stages of the two-spotted spider mite (Tetranychus urticae) are sprayed with an active substance preparation at the desired concentration. After the desired time the action in % is determined. Here 100% means that all spider mites were killed; 0% means that no spider mites were killed.

[10] = log P determination with LC-MS under acidic conditions, pH 2.7; type: physicochemical; conditions: reverse phase HPLC column (C 18)
Experimental: The determination of the log P values given in the above table and preparation examples is carried out in accordance with EEC directive 79/831 Annex V.A8 by HPLC (High Performance Liquid Chromatography) on a reverse phase column (C 18). Temperature: 43° C. The determination with LC-MS under acidic conditions is carried out at pH 2.7 with 0.1% aqueous formic acid and acetonitrile (contains 01% formic acid) as eluents; linear gradient from 10% acetonitrile to 95% acetonitrile. Calibration was is carried out with unbranched alkan-2-ones (with 3 to 16 carbon atoms) of known log P values (Determination of log P values by the retention times by linear interpolation between two sequential alkanones).

[11] = Phaedon cochleariae, 168 h, spray treatment, China cabbage slices, after 7 d, read-out: Death rate in % after 7d

SMILES	chromatographic logP [1]	pest or weed control at 100 g/ha [2]	activity in Myzus test (spray treatment) [2]	activity in Phaedon test (spray treatment) [3]	pest or weed control at 4 g/ha [4]	activity in Spodoptera frugiperda test (spray treatment) [4]	further results
Cc1nc(Cn2cc(C(F)(F)C(F)(F)F)c(C(F)(F)C(F)(F)F)n2)ncc1NC(=O)c1cccc(Cl)c1C(=O)N[C@@H](C)CS(C)(=O)=O [Example 66]	3.29	100%	good activity	good activity	100%	good activity	pest or weed control at 4 g/ha [3, 11]: 100%; Death rate in % after 7d ([5]; 0.8 ppm, cabbage leaves dipped, after 7 d): 100%; activity in Plutella test ([5]; statement in words): good activity; Death rate in % after 7d ([6]; 4 ppm): 100%; activity in Spodoptera exigua test (resistant strain) [6]: good activity; Death rate in % after 7d ([7]; 0.8 ppm, soy bean leaves dipped, after 7 d): 80%; activity in Heliothis armigera test ([7]; statement in words): good activity
Cc1nc(Cn2nc(C(F)(F)F)nc2C(F)(F)F)ncc1NC(=O)c1cccc(I)c1C(=O)N[C@@H](C)CS(C)(=O)=O [Example 41]	2.54	90%	good activity				Death rate in % after 6d [8]: 95%; activity in Myzus persicae test; hydroponic treatment [8]: good activity
CSC[C@H](C)NC(=O)c1c(Cl)cccc1C(=O)Nc1cnc(Cn2cc(C(F)(F)C(F)(F)F)c(C(F)(F)C(F)(F)F)n2)nc1C [Example 64]	4.11	100%	good activity	good activity	100%	good activity	pest or weed control at 4 g/ha [3, 11]: 100%; Death rate in % after 5d ([9]; 100 g/ha, OP resistant, bean leaf slices sprayed, after 5 d): 100%; activity in Tetranychus Test OP resistant ([9]; statement in words): good activity
Cc1nc(Cn2nc(C(F)(F)F)cc2C(F)(F)F)ccc1[N+](=O)[O-] [IV-1, 6-{[3,5-bis(trifluoromethyl)-1H-pyrazol-1-yl]methyl}-2-methyl-3-nitropyridine]							chromatographic logP [10]: 3.8
Cc1nc(Cn2nc(C(F)(F)F)cc2C(F)(F)F)ncc1NC(=O)c1cccc(I)c1C(=O)N[C@@H](C)C[S+](C)[O-] (stereo partly drawn) [Example 24]	2.27	100%	good activity		83%	good activity	Death rate in % after 6d [8]: 95%; activity in Myzus persicae test; hydroponic treatment [8]: good activity
Cc1nc(Cn2nc(C(F)(F)F)cc2C(F)(F)F)ccc1N [IIIa-1, 6-{[3,5-bis(trifluoromethyl)-1H-pyrazol-1-yl]methyl}-2-methylpyridin-3-amine]							chromatographic logP [10]: 1.9
Cc1nc(Cn2nc(C(F)(F)F)cc2C(F)(F)F)ccc1NC(=O)c1cccc(Cl)c1C(=O)N[C@@H](C)CS(C)(=O)=O [Example 9]	2.69	100%	good activity	good activity	100%	good activity	pest or weed control at 100 g/ha ([3]; Phaedon cochleariae, 168 h, 100 g/ha, spray treatment, China cabbage slices, after 7 d, read-out: Death rate in % after 7d): 100%; Death rate in % after 7d ([6]; 0.8 ppm): 80%; activity in Spodoptera exigua test (resistant strain) [6]: good activity

Reference: patent US7884242B2, “N-heterocyclylphthaldiamides as insecticides” (Bayer CropScience AG, priority 2004, dated 2011)
